A short description of data set [1]: Storage stability of emulsion concentrates at 65° C. (chemical assay before and after storage). The conditions noted are these: emulsion concentrate with addition of Stabilizer A, storage at 65° C. up to 2 weeks. It counts as physicochemical. The protocol:
The present invention further relates to a use of the base for increasing the stability of the pesticide of formulae I or II. The stability of the pesticide may be analyzed storage for 14 days at 65° C. An increase of the stability of the pesticide may be identified by analyzing the chemical recovery after said storage.
Finally, all samples of the emulsion concentrates were stored at 65° C. up to 2 weeks, and chemical assay was determined before and after storage. The chemical stability results as well as initial formulation pH (measured at 1% formulation dilution in water at room temperature) were listed in Table 1.

The subject of data set [2] is larvae of Helicoverpa zea. The settings on record: Applied and Environmental Microbiology (1995), 61(12), 4429-35; cited from earlier work.
Data set [3] relates to Plutella xylostella L larvae. The settings on record: WO 2004/060065; cited from earlier work.
In the next data set the test system is Tenebrio molitor L. The settings on record: WO 2004/060065; cited from earlier work.

Consider `C[C@]1(COC(=O)C2CC2)[C@@H]2C[C@H](O)[C@@]3(C)Oc4cc(-c5cccnc5)oc(=O)c4[C@H](O)[C@@H]3[C@@]2(C)CC[C@@H]1OC(=O)C1CC1` [Insecticide A], for which the “chemical stability of Insecticide A” value in data set [1] is on record as “dramatically improved”.
As for `CC(=O)OC[C@@]1(C)[C@@H]2C[C@H](OC(C)=O)[C@@]3(C)Oc4cc(-c5cccnc5)oc(=O)c4[C@H](O)[C@@H]3[C@@]2(C)CC[C@@H]1OC(C)=O` [Insecticide B, Pyripyropene A], the “insecticidal activity against larvae of Helicoverpa zea” value in data set [2] is “has insecticidal activity”. The “insecticidal activity against Plutella xylostella L larvae” value in data set [3] was “has insecticidal activity”. For the same compound, the “insecticidal activity against Tenebrio molitor L” value with Tenebrio molitor L is reported as “has insecticidal activity”.

These data come from patent US9723834B2, “Composition containing a pyripyropene insecticide and a base” (BASF SE, priority 2010, dated 2017).
